Patent US5773422A, “Avermectin formulation” (priority 1996, dated 1998)

Columns and labels:
[1] = cited from earlier work
[2] = solubility of avermectins/ivermectin in N-methylpyrrolidone and 2-pyrrolidone formulations; water tolerance (clear solution becomes milky or cloudy as excess water is added); format: physicochemical
Protocol: Both N-methylpyrrolidone and 2-pyrrolidone have been approved as a safe solvent for injection, but only for oxytetracycline; which is chemically unlike ivermectin. […] Ivermectin can be present in the formulation from 0.1% to 40% (w/v). N-methylpyrrolidone (also known as M-pyrole) can be present from 5% to essentially 100% (v/v) of the formulation. The specific gravity of N-methylpyrrolidone is 1.027 at 25° C. relative to water at 4° C. Additional compounds can be included as desired, e.g. propylene glycol up to 95% by volume, water up to 90% by volume and Clorsulon (an antiparasitic agent frequently co-administered with ivermectin) up to 40% by weight. The formulation can contain water up to amounts which limit avermectin solubility. The maximum amount of water which can be included depends upon the amount of avermectin and the presence of co-solvents such as propylene glycol, and presence of detergent, as illustrated in the Examples. The amount of water which can be present is limited only by avermectin solubility. The presence of too much water can be readily detected because the clear solution becomes milky or cloudy as excess water is added. Where N-methylpyrrolidone is the sole solvent, up to 30% by volume of water can be included in a formulation containing 1% (w/v) ivermectin. If less ivermectin is present, the amount of water can be increased somewhat. If 10% (v/v) propylene glycol is a co-solvent with 20% (w/v) N-methylpyrrolidone, 0.5% ivermectin remains soluble in the presence of water up to about 70% by volume. Compositions containing 2-pyrrolidone completely or partially substituted for N-methylpyrrolidone in the exemplified formulations are equivalent in their solubility properties. As noted above, compositions containing N-methylpyrrolidone are preferred.

[3] = pain and tissue reaction at the injection site; format: in vivo; conditions: compared with 2-pyrrolidone
Rat = conditions: cited from earlier work
[4] = cited from earlier work; remark: listed apart in the source

Row | Compound | solubility in 1-butanol ([1]; 1-butanol) | solubility in 2-propanol ([1]; 2-propanol) | solubility in acetone ([1]; acetone) | solubility in methylethylketone ([1]; methylethylketone) | solubility in water ([1]; water, room temperature) | water in the presence of which ivermectin remains soluble ([2]; 0.5% ivermectin, 10% (v/v) propylene glycol co-solvent with 20% (w/v) N-methylpyrrolidone) | solubility in 2-pyrrolidone ([2]; 2-pyrrolidone, to permit formulation of therapeutic compositions) | amount of water which can be included (limited by avermectin solubility) ([2]; N-methylpyrrolidone sole solvent, 1% (w/v) ivermectin) | solubility in N-methylpyrrolidone ([2]; N-methylpyrrolidone, to permit formulation of therapeutic compositions) | pain at the injection site [3] | tissue reaction [3] | LD50 (Rat; Rat, oral) | oral toxicity (Rat) | time in which most of the compound is eliminated by the kidneys [4]
1 | 22,23-dihydroavermectin B1 [ivermectin] | 330 mg/mL | 70 mg/mL | 81 mg/mL | 320 mg/mL | about 0.005 mg per ml | up to 70 % by volume | sufficiently soluble | up to 30 % by volume | sufficiently soluble |  |  |  |  | 
2 | CN1CCCC1=O [N-methylpyrrolidone] |  |  |  |  |  |  |  |  |  | less pain at the injection site | less tissue reaction | 4200 mg/kg | very low order of oral toxicity | ≤ 24 h
